Results on three compounds are retold here after patent US8551967B2, “Formulations with anti-tumour action” (Gentium SpA, priority 2003, dated 2013).

Like-named read-outs stand apart in the source and are kept apart here.

Data set [1] relates to mammary carcinoma 13762. The experiment in a line: Tumour growth delay in rats carrying mammary carcinoma 13762. As to conditions: for Days to reach 500 mm^3 / TGD: chemotherapy alone, ip days 8 & 18; for Days to reach 500 mm^3: tumour implanted day 0; for TGD: versus controls. As for the experimental part:
The hepatotoxin monocrotaline and the AA carmustine (BCNU), alone or in association with DF, were tested in vivo in an experimental model which used rats carrying mammary carcinoma 13762.
Table 1. […] The tumour was implanted on day 0 and the chemotherapy was administered on day 8 and day 18.

Data set [2] relates to mouse EMT-6 mammary carcinoma cells. The data set can be described thus: Cytotoxicity of alkylating agents with and without DF in EMT-6 cells in culture.
For data set [3], the system named is bovine endothelial cells. The experiment in a line: Cytotoxicity of alkylating agents with and without DF in bovine endothelial cells in culture. Type of data set: cell-based. As to conditions: DF 50 μg/ml with alkylating agents.
Text: In the following study, DF was examined in combination with antiblastic cytotoxic agents in a model of mouse EMT-6 mammary carcinoma cells and in bovine endothelial cells, in cell cultures and in an experimental model in which rats carrying tumours subjected to high doses of chemotherapy were used.
In data set [4] the test system is MM cells. The experiment in a line: In vitro direct cytotoxicity against MM cells. It counts as cell-based. Particulars: DF alone.
In data set [5] the test system is Lewis pulmonary carcinoma. The experiment in a line: Tumour growth and pulmonary metastases in mice carrying Lewis pulmonary carcinoma. It counts as in vivo. Particulars: DF added to paclitaxel with or without carboplatin. The source says:
The mechanism underlying these effects remains to be explained, but it is possible that the anti-adhesive properties of DF are involved, given the role of cell adhesion in the mechanisms implicated in drug resistance (8, 9).

For data set [6], the system named is MM-1S human MM cells. Type of data set: in vivo. As to conditions: for Tumor volume: P<0.05. As for the experimental part:
It was also tested whether DF has in vivo activity in a murine model of human multiple myeloma (MM). Sixty male SCID/NOD mice (6-8 weeks old) were irradiated (450 rads) and, 24 hrs later, injected s.c. with 5×10^6 MM-1S human MM cells. Upon formation of palpable tumors, mice were randomly assigned to 6 cohorts (10 mice each) receiving a) vehicle; b) DF (i.v. 450 mg/kg b.i.d); c) melphalan (MEL) 2.5 mg/kg i.p. once weekly; d) cyclophosphamide (CTX) 50 mg/kg i.p., on days 8, 10, 12, 20, 22 and 24; e) and f) combinations of DF (300 mg/kg i.v.) with MEL or CTX, respectively. Mice were monitored q3 days for body weight, potential toxicity, and electronic caliper-based tumor volumes.
The major endpoints for efficacy were a) tumor volume changes and b) overall survival (time-to-sacrifice, performed when tumor diameters>2 cm).

The mark [7] stands for this setting: monocrotaline or BCNU together with DF.
[8] abbreviates: versus cytotoxic therapy alone, data not presented.

On to `C[C@H]1C(=O)O[C@@H]2CCN3CC=C(COC(=O)[C@](C)(O)[C@]1(C)O)[C@H]23` [Monocrotaline, monocrotaline], for which, in data set [1], the “Days to reach 500 mm^3” value turned out to be 15.6 ± 1.0 days and the “TGD” value is given as 1.0 days.

For the compound `O=NN(CCCl)C(=O)NCCCl` [BCNU, carmustine], in data set [1], the “Days to reach 500 mm^3” value is 18.0 ± 2.5 days and the “TGD” value worked out at 3.4 days.

Consider defibrotide [DF], for which the “Tumour growth delay (TGD), in words” value in data set [1] (DF alone versus control, p<0.05, repeat study) is on record as “significant tumour growth delay”; in data set [1] (DF associated with CTX and BCNU, p<0.04, greater than each agent alone, repeat study), “particularly significant”; in data set [1] (setting [7]) it was “significant tumour growth delay”. The “Additional toxicity in the animals” value in data set [1] (setting [7]) is listed as “no additional toxicity”. In addition, the “Increment in the killing of tumour cells by 4HC” value in data set [2] (DF 50 μg/ml before and during, or during and after 4HC, 4HC 50-250 μmol) worked out at 2 logarithmic units. The “Effect of DF on cytotoxicity of melphalan” value in data set [2] (DF before and during or during and after melphalan) was “did not show any significant effect”. For the same compound, in data set [2] (DF with carboplatin, compared with thiotepa result), the “Effect of DF on cytotoxicity of carboplatin” value is “A similar result”. Besides, in data set [3], the “Increase in cytotoxicity of AAs in association with DF” value is on record as “no increase in cytotoxicity”. Besides, in data set [4], the “Direct in vitro cytotoxic effect” value is on record as “have not shown a significant direct in vitro cytotoxic effect”. In addition, in data set [5], the Toxicity entry is listed as “without showing an obvious increase in toxicity”. The “Number of pulmonary metastases” value in data set [5] (setting [8]) is “reduction”. Further, the “Tumour growth (TGD)” value in data set [5] (setting [8]) is reported as “reduction in tumour growth”. The results for the Tumor volume entry in data set [6] (DF 300 mg/kg i.v. with MEL or CTX versus single-agent chemotherapy) and in data set [6] (DF i.v. 450 mg/kg b.i.d versus control mice) were “significantly lower tumor volumes than the respective single-agent cytotoxic chemotherapy” and “significantly lower tumor volumes than in control mice”, respectively. Besides, the “Tolerability (hemorrhagic complications, body weight)” value in data set [6] (DF single agent (i.v. 450 mg/kg b.i.d) or 300 mg/kg i.v. with MEL or CTX, P>0.05) is recorded as “well tolerated without hemorrhagic complications or body weight loss”. Besides, in data set [6] (DF single agent or with MEL or CTX, versus vehicle or MEL- or CTX-treated groups, P<0.001 log-rank), the “Overall survival (time-to-sacrifice), Kaplan-Meier” value is “statistically significant prolongation of overall survival”.
